Laboratory results reported in the supplement of paper PMC10307832.

Assays:
Assay in all cases: relative viability (nuclei count vs DMSO), 5 days (fraction); higher = more cells survive
[1] = test system: BEN
Summary of the method: (§1)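 Relative viability was taken as the ratio of nuclei in treated wells to nuclei in vehicle wells. Lung cancer cell lines in 1536-well plates received compounds by pin tool one day after seeding, either one drug alone or a fixed anchor-drug dose plus five library-drug doses (not always all listed) in √10 steps. Nuclei were counted on 4× images after 5 days of treatment, and values are medians of duplicate plates.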

[2] = test system: CAL-12T
Summary of the method: as §1

[3] = test system: COR-L 105
Summary of the method: as §1

[4] = test system: COR-L23
Summary of the method: as §1

[5] = test system: HARA
Summary of the method: as §1

[6] = test system: HCC-15
Summary of the method: as §1

[7] = test system: HCC-44
Summary of the method: as §1

[8] = test system: HCC-827
Summary of the method: as §1

[9] = test system: HOP-62
Summary of the method: as §1

[10] = test system: LC-2-ad
Summary of the method: as §1

[11] = test system: LCLC-97TM1
Summary of the method: as §1

[12] = test system: LU99A
Summary of the method: as §1

[13] = test system: LXF-289
Summary of the method: as §1

[14] = test system: NCI-H1993
Summary of the method: as §1

[15] = test system: NCI-H2009
Summary of the method: as §1

[16] = test system: NCI-H2087
Summary of the method: as §1

[17] = test system: NCI-H2126
Summary of the method: as §1

[18] = test system: NCI-H2170
Summary of the method: as §1

[19] = test system: NCI-H727
Summary of the method: as §1

[20] = test system: PC-14
Summary of the method: as §1

[21] = test system: PC-3 [JPC-3]
Summary of the method: as §1

[22] = test system: SK-MES-1
Summary of the method: as §1

Question: With `O=c1[nH]c2ccccc2n1C1CCN(CCCC(c2ccc(F)cc2)c2ccc(F)cc2)CC1` [Pimozide] + CCNC(=O)c1noc(-c2cc(C(C)C)c(O)cc2O)c1-c1ccc(CN2CCOCC2)cc1 [Luminespib] (partner 0.01 µM) as the compound, how does the relative viability ([1]; first compound 0.08 µM) read?
Answer: 0.3

Question: And the relative viability ([1]; first compound 0.253 µM)?
Answer: 0.413

Question: And the relative viability ([1]; first compound 0.8 µM)?
Answer: 0.324

Question: And the relative viability ([1]; first compound 2.53 µM)?
Answer: 0.368

Question: And the relative viability ([1]; first compound 8 µM)?
Answer: 0.331

Question: And the relative viability ([2]; first compound 0.08 µM)?
Answer: 0.305

Question: What about the relative viability ([2]; first compound 0.253 µM) of the same compound?
Answer: 0.408

Question: What about the relative viability ([2]; first compound 0.8 µM) of the same compound?
Answer: 0.186

Question: And the relative viability ([2]; first compound 2.53 µM)?
Answer: 0.514

Question: And the relative viability ([2]; first compound 8 µM)?
Answer: 0.168

Question: And the relative viability ([3]; first compound 0.253 µM)?
Answer: 0.885

Question: What about the relative viability ([3]; first compound 0.8 µM) of the same compound?
Answer: 0.631

Question: And the relative viability ([3]; first compound 2.53 µM)?
Answer: 0.879

Question: And the relative viability ([3]; first compound 8 µM)?
Answer: 0.687

Question: What about the relative viability ([4]; first compound 0.08 µM) of the same compound?
Answer: 0.603

Question: What about the relative viability ([4]; first compound 0.253 µM) of the same compound?
Answer: 0.628

Question: And the relative viability ([4]; first compound 0.8 µM)?
Answer: 0.594

Question: And the relative viability ([4]; first compound 2.53 µM)?
Answer: 0.61

Question: And the relative viability ([4]; first compound 8 µM)?
Answer: 0.707

Question: What about the relative viability ([5]; first compound 0.253 µM) of the same compound?
Answer: 0.949

Question: What about the relative viability ([5]; first compound 0.8 µM) of the same compound?
Answer: 0.684

Question: And the relative viability ([5]; first compound 2.53 µM)?
Answer: 0.568

Question: What about the relative viability ([5]; first compound 8 µM) of the same compound?
Answer: 0.795

Question: What about the relative viability ([6]; first compound 0.08 µM) of the same compound?
Answer: 0.308

Question: And the relative viability ([6]; first compound 0.253 µM)?
Answer: 0.288

Question: And the relative viability ([6]; first compound 0.8 µM)?
Answer: 0.257

Question: And the relative viability ([6]; first compound 2.53 µM)?
Answer: 0.175

Question: And the relative viability ([6]; first compound 8 µM)?
Answer: 0.308

Question: What about the relative viability ([7]; first compound 0.08 µM) of the same compound?
Answer: 1.17

Question: What about the relative viability ([7]; first compound 0.253 µM) of the same compound?
Answer: 1.02

Question: What about the relative viability ([7]; first compound 0.8 µM) of the same compound?
Answer: 0.953

Question: What about the relative viability ([7]; first compound 2.53 µM) of the same compound?
Answer: 0.994

Question: And the relative viability ([7]; first compound 8 µM)?
Answer: 1.01

Question: What about the relative viability ([8]; first compound 0.253 µM) of the same compound?
Answer: 0.58

Question: What about the relative viability ([8]; first compound 0.8 µM) of the same compound?
Answer: 0.413

Question: What about the relative viability ([8]; first compound 2.53 µM) of the same compound?
Answer: 0.625

Question: And the relative viability ([8]; first compound 8 µM)?
Answer: 0.582

Question: And the relative viability ([9]; first compound 0.08 µM)?
Answer: 0.995

Question: And the relative viability ([9]; first compound 0.253 µM)?
Answer: 0.875

Question: What about the relative viability ([9]; first compound 0.8 µM) of the same compound?
Answer: 0.709

Question: And the relative viability ([9]; first compound 2.53 µM)?
Answer: 0.904

Question: What about the relative viability ([9]; first compound 8 µM) of the same compound?
Answer: 0.873

Question: And the relative viability ([10]; first compound 0.08 µM)?
Answer: 1.1

Question: What about the relative viability ([10]; first compound 0.253 µM) of the same compound?
Answer: 0.969

Question: What about the relative viability ([10]; first compound 0.8 µM) of the same compound?
Answer: 0.935

Question: And the relative viability ([10]; first compound 2.53 µM)?
Answer: 0.985

Question: And the relative viability ([10]; first compound 8 µM)?
Answer: 0.993

Question: What about the relative viability ([11]; first compound 0.08 µM) of the same compound?
Answer: 0.89

Question: What about the relative viability ([11]; first compound 0.253 µM) of the same compound?
Answer: 0.689

Question: And the relative viability ([11]; first compound 0.8 µM)?
Answer: 0.62

Question: And the relative viability ([11]; first compound 2.53 µM)?
Answer: 0.632

Question: What about the relative viability ([11]; first compound 8 µM) of the same compound?
Answer: 0.679

Question: What about the relative viability ([12]; first compound 0.08 µM) of the same compound?
Answer: 0.242

Question: And the relative viability ([12]; first compound 0.253 µM)?
Answer: 0.247

Question: What about the relative viability ([12]; first compound 0.8 µM) of the same compound?
Answer: 0.263

Question: And the relative viability ([12]; first compound 2.53 µM)?
Answer: 0.242

Question: What about the relative viability ([12]; first compound 8 µM) of the same compound?
Answer: 0.233

Question: And the relative viability ([13]; first compound 0.08 µM)?
Answer: 0.642

Question: What about the relative viability ([13]; first compound 0.253 µM) of the same compound?
Answer: 0.634

Question: And the relative viability ([13]; first compound 0.8 µM)?
Answer: 0.702

Question: And the relative viability ([13]; first compound 2.53 µM)?
Answer: 0.664

Question: What about the relative viability ([13]; first compound 8 µM) of the same compound?
Answer: 0.632

Question: What about the relative viability ([14]; first compound 0.08 µM) of the same compound?
Answer: 0.729

Question: And the relative viability ([14]; first compound 0.253 µM)?
Answer: 0.809

Question: What about the relative viability ([14]; first compound 0.8 µM) of the same compound?
Answer: 0.77

Question: And the relative viability ([14]; first compound 2.53 µM)?
Answer: 0.79

Question: What about the relative viability ([14]; first compound 8 µM) of the same compound?
Answer: 0.425

Question: And the relative viability ([15]; first compound 0.08 µM)?
Answer: 0.984

Question: And the relative viability ([15]; first compound 0.253 µM)?
Answer: 1.01

Question: What about the relative viability ([15]; first compound 0.8 µM) of the same compound?
Answer: 0.981

Question: And the relative viability ([15]; first compound 2.53 µM)?
Answer: 1.05

Question: What about the relative viability ([15]; first compound 8 µM) of the same compound?
Answer: 0.842

Question: What about the relative viability ([16]; first compound 0.08 µM) of the same compound?
Answer: 0.192

Question: And the relative viability ([16]; first compound 0.253 µM)?
Answer: 0.205

Question: And the relative viability ([16]; first compound 2.53 µM)?
Answer: 0.171

Question: And the relative viability ([16]; first compound 8 µM)?
Answer: 0.228

Question: What about the relative viability ([17]; first compound 0.08 µM) of the same compound?
Answer: 0.901

Question: And the relative viability ([17]; first compound 0.253 µM)?
Answer: 0.889

Question: What about the relative viability ([17]; first compound 0.8 µM) of the same compound?
Answer: 0.842

Question: And the relative viability ([17]; first compound 2.53 µM)?
Answer: 0.877

Question: What about the relative viability ([17]; first compound 8 µM) of the same compound?
Answer: 0.839

Question: And the relative viability ([18]; first compound 0.08 µM)?
Answer: 0.527

Question: What about the relative viability ([18]; first compound 0.253 µM) of the same compound?
Answer: 0.73

Question: And the relative viability ([18]; first compound 0.8 µM)?
Answer: 0.779

Question: What about the relative viability ([18]; first compound 2.53 µM) of the same compound?
Answer: 0.624

Question: And the relative viability ([18]; first compound 8 µM)?
Answer: 0.671

Question: And the relative viability ([19]; first compound 0.08 µM)?
Answer: 0.321

Question: What about the relative viability ([19]; first compound 0.253 µM) of the same compound?
Answer: 0.3

Question: What about the relative viability ([19]; first compound 0.8 µM) of the same compound?
Answer: 0.297

Question: And the relative viability ([19]; first compound 2.53 µM)?
Answer: 0.593

Question: And the relative viability ([19]; first compound 8 µM)?
Answer: 0.25

Question: What about the relative viability ([20]; first compound 0.253 µM) of the same compound?
Answer: 0.181

Question: And the relative viability ([20]; first compound 2.53 µM)?
Answer: 0.15

Question: And the relative viability ([20]; first compound 8 µM)?
Answer: 0.111

Question: What about the relative viability ([21]; first compound 0.08 µM) of the same compound?
Answer: 0.402

Question: And the relative viability ([21]; first compound 0.253 µM)?
Answer: 0.714

Question: And the relative viability ([21]; first compound 0.8 µM)?
Answer: 0.699

Question: What about the relative viability ([21]; first compound 2.53 µM) of the same compound?
Answer: 0.723

Question: And the relative viability ([21]; first compound 8 µM)?
Answer: 0.599

Question: And the relative viability ([22]; first compound 0.08 µM)?
Answer: 0.859

Question: What about the relative viability ([22]; first compound 0.253 µM) of the same compound?
Answer: 0.766

Question: What about the relative viability ([22]; first compound 0.8 µM) of the same compound?
Answer: 0.702

Question: What about the relative viability ([22]; first compound 2.53 µM) of the same compound?
Answer: 0.815

Question: What about the relative viability ([22]; first compound 8 µM) of the same compound?
Answer: 0.596
